Biological target: Protein-arginine deiminase type-3 (Homo sapiens) (UniProt Q9ULW8)
Test: PubChem AID 651866
Conditions: recombinant PAD3, citrulline colorimetric, time-dependent inactivation; hits give high values

Protein-arginine deiminase type-3 (Homo sapiens), sequence (Q9ULW8 whole entry, looked up): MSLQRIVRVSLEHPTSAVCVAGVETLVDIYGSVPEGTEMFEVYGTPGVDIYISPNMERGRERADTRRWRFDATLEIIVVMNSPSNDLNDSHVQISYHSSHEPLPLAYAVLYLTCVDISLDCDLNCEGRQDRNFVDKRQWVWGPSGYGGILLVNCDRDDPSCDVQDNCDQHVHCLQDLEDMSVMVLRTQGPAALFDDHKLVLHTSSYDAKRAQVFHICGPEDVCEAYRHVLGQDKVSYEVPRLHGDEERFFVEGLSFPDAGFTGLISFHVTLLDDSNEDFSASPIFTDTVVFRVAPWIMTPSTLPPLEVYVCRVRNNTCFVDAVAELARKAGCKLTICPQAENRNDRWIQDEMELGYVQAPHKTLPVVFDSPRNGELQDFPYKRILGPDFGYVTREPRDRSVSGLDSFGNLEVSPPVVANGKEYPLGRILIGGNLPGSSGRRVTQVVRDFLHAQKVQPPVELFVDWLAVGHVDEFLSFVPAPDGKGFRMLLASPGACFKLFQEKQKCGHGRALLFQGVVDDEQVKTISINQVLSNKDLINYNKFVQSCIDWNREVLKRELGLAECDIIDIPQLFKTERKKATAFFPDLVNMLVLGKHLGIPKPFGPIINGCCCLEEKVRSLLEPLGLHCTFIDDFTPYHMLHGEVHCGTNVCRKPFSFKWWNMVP

kinact/KI: 31.7 M⁻¹ s⁻¹
SMILES: NC1=CC(=O)c2ccc(-c3cccc(C(=O)O)n3)nc2C1=O

Reference: PubChem BioAssay AID651866 (The Scripps Research Institute Molecular Screening Center, 2012)
